Measured values published in BindingDB's records for doi:10.1016/j.ejmech.2021.113556 (Zhejiang University, 2021).
pIC50: −log10 of the molar value.

Legend:
[1] = target: Proteasome subunit beta type-7 (Homo sapiens) (UniProt Q99436); assay: Inhibition of human trypsin-like activity of 20s proteasome beta 2c subunit using SUC-KQL-AMC as flurogenic substrate preincubated for 15 mins followed by substrate addition and measured after 1 hr by fluorescence assay
[2] = target: Proteasome subunit beta type-6 (Homo sapiens) (UniProt P28072); assay: Inhibition of caspase-like activity of human proteasome beta-1c subunit using SUC-LLE-AMC as flurogenic substrate preincubated for 15 mins followed by substrate addition and measured after 1 hr by fluorescence assay
Chain of Proteasome subunit beta type-6 (Homo sapiens) (P28072 whole entry, looked up): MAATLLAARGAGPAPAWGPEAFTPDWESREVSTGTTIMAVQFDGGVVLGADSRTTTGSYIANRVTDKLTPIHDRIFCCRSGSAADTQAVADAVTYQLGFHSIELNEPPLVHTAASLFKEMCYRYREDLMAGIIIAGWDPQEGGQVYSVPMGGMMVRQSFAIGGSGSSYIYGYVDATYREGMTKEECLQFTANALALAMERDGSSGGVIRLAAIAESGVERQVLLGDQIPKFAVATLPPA

Chain of Proteasome subunit beta type-7 (Homo sapiens) (Q99436 whole entry, looked up): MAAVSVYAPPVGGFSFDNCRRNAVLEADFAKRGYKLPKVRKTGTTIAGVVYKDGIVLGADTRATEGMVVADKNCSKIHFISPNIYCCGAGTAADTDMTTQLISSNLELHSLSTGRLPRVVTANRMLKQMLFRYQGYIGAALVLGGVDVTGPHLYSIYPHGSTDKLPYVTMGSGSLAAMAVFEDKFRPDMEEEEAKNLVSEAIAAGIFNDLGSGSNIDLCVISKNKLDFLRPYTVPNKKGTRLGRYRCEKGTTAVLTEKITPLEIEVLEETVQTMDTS

pIC50 [1] | pIC50 [2] | SMILES
< 5.00 | 5.36 | C[C@H](NC(=O)N1CCC(NC(=O)c2nccs2)CC1)C(=O)N[C@@H](Cc1c[nH]c2ccccc12)C(=O)N[C@@H](Cc1ccccc1)C(=O)[C@@]1(C)CO1
< 5.00 | < 5.00 | COc1ccc(C[C@H](NC(=O)[C@@H](C)NC(=O)N2CCC(OC)CC2)C(=O)N[C@@H](Cc2ccccc2)C(=O)[C@@]2(C)CO2)cc1
< 5.00 | < 5.00 | COc1ccc(C[C@H](NC(=O)[C@@H](C)NC(=O)N2CC[C@H](OC)C2)C(=O)N[C@@H](Cc2ccccc2)C(=O)[C@@]2(C)CO2)cc1
< 5.00 | < 5.00 | COc1ccc(C[C@H](NC(=O)[C@@H](C)NC(=O)N2CCC[C@@H](OC)C2)C(=O)N[C@@H](Cc2ccccc2)C(=O)[C@@]2(C)CO2)cc1
